Reference: patent US10278931B2, “Composition for treatment of inflammatory bowel disease and atopic dermatitis” (INNOPHARMASCREEN INC., priority 2015, dated 2019)

Experiments:
[1] = system: inflammatory cytokines; experiment: Inflammatory cytokine production and mRNA expression in HMC-1 cells; type: cell-based, human
Procedure: (§1) (1) Cell culture: A human mast cell line (HMC-1) was cultured in an IMDM supplemented with 10% FBS at 37° C. and 5% CO2. Candidate materials were dissolved in DMSO, and then filtered using a 0.22 μm filter. The resulting candidate materials were diluted with DMSO and the HMC-1 cells were treated therewith.
(5) Reverse transcription-polymerase chain reaction (RT-PCR) quantitative real time PCR: Total RNA was isolated from cells and tissues, and cDNA was synthesized using a reverse transcriptase and was then reacted with cytokine primers to be analyzed, followed by PCR and real-time PCR. The RT-PCR products were subjected to electrophoresis using 1.5% agarose gel for analysis.

[2] = system: SD rats; experiment: Acute dermal toxicity test; type: in vivo; conditions: for Number of death on day 1 / Number of death on day 2 / Number of death on day 3 / Number of death on day 4 / Number of death on day 5 / Number of death on day 6 / Number of death on day 7 / Number of death on day 8-14 / Number of death on day 0: dose group 200 (head μg/kg bw); for Number of death on day 0: single transdermal
Procedure: (1) Environmental Conditions: In the present experiment, experimental animals were bred in a clean animal breeding room (small animal room #2-302) at Hoseo University Safety Evaluation Center, set under environmental conditions: temperature of 22±3° C.; relative humidity of 50±20%; ventilation frequency of 10 to 15 times/hour; illumination period of 12 hours; and illuminance of 150 Lux to 300 Lux.
(2) Cages and rugs: Two or three animals per sex were accommodated in each of polycarbonate cages (270×500×200 mm, KYERYONG SCIENCE) with a stainless steel mesh lid during an acclimation period, and after group division, 1 animal per sex was accommodated therein. As the rugs, sterile betachips (NEPCO) irradiated with gamma rays were used.
(3) Feed and drinking water: The animals were fed freely a mouse feed for laboratory, animals (5053-Picolab Rodent 20) manufactured by PMI Nutrition International, and filtered water treated with ultraviolet sterilization (R/O water) was freely supplied as drinking water.
(4) Examination of contaminant in feed and drinking water: Contaminants in the feed were examined by receiving a test result from the feed manufacturer, and the quality of drinking water was checked for contamination by regular inspection according to the corresponding SOP of the present test institute and it was confirmed that there were no contaminants.
(A) About 24 hours before administration, hairs on the dorsal part was removed such that the hair-removed site accounted for about 10% or more of the entire surface area thereof, and attention was paid not to injure the skin.
(B) On the day of administration, a dosage for each individual was calculated, and then a test material was sufficiently wetted with a solvent and then applied on the site corresponding to about 10% (about 44 cm) of the entire surface area.
(C) The test material was kept in contact with the skin using a porous gauze, a non-irritating tape, and a bandage during the 24-hour exposure period.
(D) When the exposure period was terminated, the remaining test material was removed using tepid water.
(A) General symptom observation: All animals were observed intensively from 30 minutes to 4 hours after administration, and general symptoms were observed once a day for 14 days. At the time of observation, death and clinical symptoms were recorded on an individual basis.
(B) Body weight measurement: All animals were measured at the time of receipt, at the time of group division, immediately before administration (day of administration), and on day 1, day 4, day 7, day 10, and day 14 after initiation of administration.
(C) Autopsy: During the test, dead animals were immediately autopsied and organs were inspected with the naked eye, and at the end of the test, all living animals were euthanized by CO2 gas inhalation and venesectioned, and then the organs visually examined.
(E) Statistical analysis: Body weight data were expressed as mean and standard deviation, and no statistical analysis of body weight was performed.

[3] = system: TSLP secretion from human mast cells (HMC-1 cells); experiment: TSLP secretion ELISA in PMACI-stimulated mast cells; type: cell-based
Procedure: as §1
(3) Enzyme-linked immunosorbent assay (ELISA): Mast cells (3×10^6 cells/ml) were stabilized for 1 hour, and then treated with 0.1 μM, 1 μM, and 10 μM of candidate materials, followed by treatment with PMACI for 8 hours. The mast cells were centrifuged to obtain supernatants. To measure the amount of TSLP secreted from the cells, ELISA was used. The ELISA was performed in 96-well plates coated with 1 μg/well of TSLP capture Ab. The coated plates were washed twice with PBS. The cells were treated with PBS containing 10% FBS for 2 hours. Thereafter, the cells were washed with PBS containing 0.05% Tween-20 (Sigma), and recombinant TSLP was used to draw a standard curve. Subsequently, the plates were exposed to a biotinylated-TSLP antibody, Avidin peroxidase, an ARTS substrate containing 30% H2O2, and then measured at 405 nm.

SMILES: Cl.N=C(N)NC(=N)Nc1ccc(Cl)cc1 [IPS-07001]
- production and mRNA expression of various inflammatory cytokines [1]: significantly inhibited
- Number of death on day 1 ([2]; Female): 0
- Number of death on day 2 ([2]; Female): 0
- Number of death on day 3 ([2]; Female): 0
- Number of death on day 4 ([2]; Female): 0
- Number of death on day 5 ([2]; Female): 0
- Number of death on day 6 ([2]; Female): 0
- Number of death on day 7 ([2]; Female): 0
- Number of death on day 8-14 ([2]; Female): 0
- Number of death on day 0 ([2]; Female): 0
- Number of death on day 1 ([2]; Male): 0
- Number of death on day 2 ([2]; Male): 0
- Number of death on day 3 ([2]; Male): 0
- Number of death on day 4 ([2]; Male): 0
- Number of death on day 5 ([2]; Male): 0
- Number of death on day 6 ([2]; Male): 0
- Number of death on day 7 ([2]; Male): 0
- Number of death on day 8-14 ([2]; Male): 0
- Number of death on day 0 ([2]; Male): 0
- dead animals during the test period ([2]; all test material-administered groups, 14 days): No dead animals
- Gross findings (internal and external) ([2]; rat, in vivo): NGF ^a)
- body weight from day 2 ([2]; rat, in vivo): normal body weight increase pattern
- body weight on day 1 after administration ([2]; rat, in vivo): decrease in body weight
- clinical symptoms, 4 hour ([2]; rat, in vivo): NCS
- clinical symptoms, Day 1 ([2]; rat, in vivo): NCS
- clinical symptoms, Day 2 ([2]; rat, in vivo): NCS
- clinical symptoms, Day 3 ([2]; rat, in vivo): NCS
- clinical symptoms, Day 4 ([2]; rat, in vivo): NCS
- clinical symptoms, Day 5 ([2]; rat, in vivo): NCS
- clinical symptoms, Day 6 ([2]; rat, in vivo): NCS
- clinical symptoms, Day 7 ([2]; rat, in vivo): NCS
- clinical symptoms, Day 8 ([2]; rat, in vivo): NCS
- clinical symptoms, Day 9 ([2]; rat, in vivo): NCS
- clinical symptoms, Day 10-14 ([2]; rat, in vivo): NCS
- visual pathological examination (autopsy) ([2]; surviving animals after observation period): no individual showed any abnormalities
- TSLP production ([3]; HMC-1 cells, concentration of 0.011 μM (so in the source), non-cytotoxic): significantly regulated
- TSLP secretion from mast cells ([3]; PMACI-stimulated HMC-1 cells, ELISA): significantly inhibited
